Values belong to the compound of their own block, whether it stands above or below them.
Columns and labels:
Format in all cases: physicochemical
[1] = Cross-polarized microscopy of CTAB containing octanol droplets exposed to aqueous dye; details: for birefringent phase formation under crossed polarizers: CTAB containing droplet arrays exposed to dye (FIGS. 6A-6B); for anisotropic phase (birefringent ring) formation, single-dye system: 400 uM red dye only or 50 uM blue dye only, CTAB drops 7.5-60 mM, ring at 30 mM CTAB or higher
Method: Also, it can be observed that there is formation of an anisotropic phase in the 30 mM CTAB drops in the red and blue dye and the red dye only systems before the red dye fully partitions into the organic phase of the drop around 5 minutes. After 5 minutes, as the red dye continues to partition into the organic phase, this anisotropic phase seems to disappear. This can be observed by observing the absence of the anisotropic phase at 10 minutes and all later times for the 30 mM CTAB drops in the red and blue dye and the red dye only systems. […] This pattern of anisotropic phase formation before the red dye partitions supports the kinetic barrier mechanism which depends on the formation of some anisotropic phase on the interface of the drops with high CTAB concentration that hinders the red dye from partitioning in and allows the blue dye to partition in at a faster rate resulting in the observed high CTAB concentration blue dye selectivity and the low CTAB concentration red dye selectivity in the Bell, 2020 study.
Erioglaucine disodium salt (Blue 1) was purchased from Sigma-Aldrich (St. Louis, MO, USA). Allura red AC (Red 40) was obtained from TCI (Tokyo, Japan). For the birefringent ring experiments shown in FIG. 3, 400 uM red 40 dye and 50 uM blue 1 dye were dissolved in D.I. water. For the equilibrium tube experiment, dye concentrations were chosen based on the assumption that one dye molecule can be sequestered for every two CTAB molecules. The dye concentrations are chosen such that once this criterion is met, there will be enough dye left in the aqueous phase to be detected by a spectrophotometer so that the aqueous phase solution will have concentrations of 1700 uM, 850 uM, 425 uM, 213 uM, 106 uM for both red 40 dye and blue 1 dye.
The different lipid solutions were microarrayed using 0.1-10 μL disposable sterile pipet tips (VWR) directly onto the substrate. Drops were 0.1 uL in volume and only had contact with the bottom glass slide. After tapping the microarray onto the substrate, 0.3 mm thick PDMS was used as a spacer between the substrate and the cover. The two spacers will be fixed 1.8 cm apart onto the substrate. The coverslip will be placed carefully onto two spacers. Microscope slides manufactured by Azer Scientific (Unifrost) will be used as substrates. Microscope cover glasses (25 mm Å˜25 mm) manufactured by VWR will be used as slipcovers. Approximately 130 μL of aqueous solution was added to the right side of the flow cell and moved quickly through the flow cell. Prior to experiments, test samples will be incubated in 1 mL of deionized water to test for stability.
The blue 1 dye and red 40 dye used wavelengths of 629 nm and 501 nm respectively for absorbance measurements. Microarray samples requiring 30 min or less were imaged with a digital microscope (Dino-Lite Pro2 AD-413T or Dino-Lite Edge AM4115ZT) at 100 Å˜ magnification. For imaging lipid microarrays, a portable backlight stage (Dino-Lite MSBL-ZW1R) was used as a white light source and positioned under the bottom of the slide to illuminate the sample.

[2] = Surfactant mediated selective dye partitioning octanol/water in tubes (non-equilibrated); details: mixture of red and blue dye in water, 4-48 hours
Method: Herein, detecting selective partitioning into droplets in a microfluidic device was scaled up to millimeter volumes in tubes, as shown in FIGS. 15A-15B and FIGS. 16A-16B. The selective partitioning behavior of the two dyes between the octanol and water phases was studied in test tubes (FIGS. 15A-15B), and dye concentrations quantified optically. First, solutions of CTAB in octanol and both dyes in water were prepared separately. Then both the aqueous and organic solutions were combined into one tube. After some time, one or both dyes partitioned into the organic phase. […] Due to the larger scale of the experiment, it took between 4-48 hours to observe the selectivity, as compared to 1-10 minutes in the microfluidic setup. (Bell, 2020.) A question about the mechanism of this surfactant mediated molecular recognition was then whether one dye is thermodynamically favored to partition into the octanol in the presence of CTAB or whether it is kinetically driven. […]
(§1) Erioglaucine disodium salt (Blue 1) was purchased from Sigma-Aldrich (St. Louis, MO, USA). […] The dye concentrations are chosen such that once this criterion is met, there will be enough dye left in the aqueous phase to be detected by a spectrophotometer so that the aqueous phase solution will have concentrations of 1700 uM, 850 uM, 425 uM, 213 uM, 106 uM for both red 40 dye and blue 1 dye.

[3] = Equilibrium dye partitioning octanol/water with CTAB (tubes, absorbance of aqueous phase); details: for stoichiometric ratio, CTAB molecules needed to extract each dye molecule: calculated from dye left in the water after extraction, where not all dye was extracted
Excerpt: To examine the dye partitioning at equilibrium, the two-phase system at various CTAB concentrations, samples were left on a shaker for one week followed by centrifugation and optical characterization of the aqueous phase by absorbance spectroscopy (FIGS. 16A-16B). Tubes containing only the red dye and only blue dye were included in the experiment as well as tubes with the dye mixture. […] CTAB has a net charge of +1 whereas both dye molecules have a net charge of −2. Thus, two positively charged CTAB can effectively balance the negative charge of the dye molecules resulting in a zero net charge for a complex of two CTAB and one dye molecule.
In order to further study the equilibrium state at high CTAB concentrations, the setup was used to allow for observation of the equilibrated state at high CTAB concentrations with excess dye in the water. Using the previously calculated dye ratios needed for maximum saturation in the organic phase, the dye concentrations were chosen so that it would be impossible for both red and blue dye to fully partition into the organic phase. Tubes with a range of concentration from 3.75 mM to 60 mM CTAB dissolved in octanol and deionized water with blue and red dye concentrations ranging from 106 μM to 1700 μM. By observing which dye is left in the aqueous phase after equilibrium is reached, it can be determined which dye is more thermodynamically favorable in the organic phase at equilibrium. If the mechanism for the blue dye selectivity at high CTAB concentrations is thermodynamic in nature and depends on the formation of micelles in the organic phase, then at high CTAB concentrations the dye remaining in the aqueous phase should be the red dye and at low CTAB concentrations, the dye remaining in the aqueous phase should be the blue dye. However, if the mechanism is kinetic and relies on the formation of an aggregation phase at the interface of the two phases, then at all concentrations of CTAB the dye remaining in the aqueous phase should be the blue dye. […] From this it was concluded that the red dye is thermodynamically favored to partition into the CTAB containing organic phase.
as §1, with “USA). Allura red AC (Red 40) was obtained from TCI (Tokyo, Japan).” for “USA).”, “dye. […]” for “dye.”
The blue 1 dye and red 40 dye used wavelengths of 629 nm and 501 nm respectively for absorbance measurements. […]

[4] = Partitioning indicator displacement assay (PIDA), CTAB/octanol drops with blue 1 dye indicator
Excerpt: The organic drops with fully dissolved indicator were exposed to an aqueous phase containing the target analyte. Over time the target analyte displaced the indicator and partitioned into the organic phase. In this experiment, the sensor had various concentrations of CTAB dissolved into the organic phase and used the maximum saturation ratio of blue dye to CTAB (Mechanism paper) to saturate each organic phase solution with the indicator, blue FCF dye. The displacement of blue dye from the organic phase was measured by monitoring optical transmittance using a color camera.
Five concentrations (60 mM, 30 mM, 15 mM, 7.5 mM, and 3.75 mM) of CTAB in octanol were placed in a tube along with 50 μM of blue dye dissolved in D.I. water, set on a shaker and allowed to equilibrate. An array was made with a sample of each concentration with the blue dye; with 11 drops (replicates) of each concentration and viewed using a DinoLite microscope. Four-hundred μM of aqueous red dye was flowed into the array and a picture was taken before addition of red dye and then every 5 seconds over a 15 minute period. […] Images were analyzed in imageJ, using […] within each replicate and 25 points for background analysis. The replicates were then separated by channel as gray values of the micrographs, and data normalized into absorbance values by subtracting the original dye free data from each replicate. The replicates were averaged per concentration and the data was transferred into percent transmittance using the formula […].
The organic solute cetyltrimethylammonium bromide (CTAB) was purchased from Sigma-Aldrich (St. Louis, USA). Erioglaucine disodium salt (Blue 1) was purchased from Sigma-Aldrich (St. Louis, MO, USA). 10 mL of 6 mM, 3 mM, 1.5 mM, 0.75 mM, and 0.375 mM blue 1 dye dissolved in deionized water and added to separate tubes containing 2 mL of different concentrations of CTAB in octanol (60 mM, 30 mM, 15 mM, 7.5 mM, and 3.75 mM), set on a shaker and allowed to equilibrate. After equilibrating for one week, the organic layer of each CTAB concentration containing the blue 1 dye was used to make the microarray.
50 nL octanol drops containing CTAB and blue 1 dye were placed onto microscope slides manufactured by Azer Scientific (Unifrost) using 0.1-10 μL disposable sterile pipet tips (VWR). A barrier of 0.3 mm PDMS was used as a spacer between the slide and cover slip (25 mm×25 mm) manufactured by VWR. Approximately 135 μL of analyte solution was added to the flow cell and moved quickly through the flow cell.
Samples were imaged with a digital microscope (Dino-Lite Pro2 AD-413T or Dino-Lite Edge AM4115ZT) at 100 Å˜ magnification. For imaging PIDA assays, a portable backlight stage (Dino-Lite MSBL-ZW1R) was used as a white light source and positioned under the bottom of the slide to illuminate the sample. Images for measurement of the transmittance were captured in brightfield mode. The time dependent partitioning was recorded at one frame per 20 second intervals.
Images were analyzed in imageJ, using 10 points within each replicate and 25 points for background analysis. The replicates were then separated into different RGB channels as gray values of the micrographs. The data was then normalized into transmittance values by subtracting the original dye free data from each replicate. The data was then converted into absorbance using the formula […]. Using the absorbance data, and the measured initial blue dye concentrations, the data was converted to blue dye concentration and then the replicates were averaged per concentration and the standard deviation was calculated. Graphs showing the separate channels of the micrographs, with the red color (b) or blue color (e) that was viewable with the DinoLite, and how they differed with concentration (B and E). The graphs are made from each of the 5 concentrations with their associated normalized absorbance values. […]

[5] = 3.75 mM CTAB drops, blue 1 dye indicator, red 40 dye analyte, from TRF fitting

birefringent phase formation under crossed polarizers [1]: not
SMILES: O=S(=O)([O-])c1ccc(N=Nc2c(O)ccc3cc(S(=O)(=O)[O-])ccc23)cc1.[Na+].[Na+] [Sunset Yellow FCF]

anisotropic phase (birefringent ring) formation, single-dye system [1]: formation of an anisotropic structure | anisotropic phase (birefringent ring) formation, single-dye system ([1]; listed as Allura Red Dye): causes a ring | birefringent phase formation under crossed polarizers [1]: birefringent phase forming | stoichiometric ratio, CTAB molecules needed to extract each dye molecule [3]: approximately 2 | partitioning at equilibrium ([3]; low CTAB concentration (<15 mM), shaker one week): partitioned into the octanol phase
SMILES: COc1cc(S(=O)(=O)[O-])c(C)cc1N=Nc1c(O)ccc2cc(S(=O)(=O)[O-])ccc12.[Na+].[Na+] [red dye, Allura red AC]
selective partitioning into the octanol phase ([2]; CTAB 0.5 mM and 1 mM in octanol): selectively partitioned into the octanol phase | partitioning at equilibrium with excess dye in the water ([3]; 3.75 mM to 60 mM CTAB in octanol, blue and red dye 106 μM to 1700 μM, all concentrations tested): preferentially partition into the organic phase

anisotropic phase (birefringent ring) formation, single-dye system ([1]; disodium salt): no anisotropic phase formation | anisotropic phase (birefringent ring) formation, single-dye system ([1]; listed as Blue Dye, disodium salt): doesn't cause a ring | stoichiometric ratio, CTAB molecules needed to extract each dye molecule [3]: approximately 2
SMILES: CCN(Cc1cccc(S(=O)(=O)[O-])c1)c1ccc(C(=C2C=CC(=[N+](CC)Cc3cccc(S(=O)(=O)[O-])c3)C=C2)c2ccccc2S(=O)(=O)[O-])cc1.[Na+].[Na+] [blue dye, Erioglaucine disodium salt]
selective partitioning into the octanol phase ([2]; high CTAB concentrations (30 mM and 60 mM) in octanol): selectively partitioned into the octanol phase

Further lines, the compound ahead of its results:

SMILES: CCCCCCCCCCCCCCCC[N+](C)(C)C.[Br-] [CTAB, cetyltrimethylammonium bromide]
delay in onset time of displacement [4, 5]: no delay in onset time | rate of displacement (decay constant) [4, 5]: 0.48 s⁻¹ | rate of displacement (decay constant) ([4]; 7.5 mM CTAB drops, blue 1 dye indicator, red 40 dye analyte, from TRF fitting): 0.42 s⁻¹ | delayed onset time of displacement ([4]; 30 mM CTAB drops, blue 1 dye indicator, red 40 dye analyte, from TRF fitting): 7.76 min | displacement rate ([4]; 30 mM CTAB, blue 1 dye indicator, red 40 dye analyte, from TRF fitting): 0.07 s⁻¹

SMILES: [Cl-].[Na+] [sodium chloride]
blue dye indicator displaced ([4]; 50 mM analyte, after 10 minutes, 7.5 mM CTAB containing octanol drops (FIG. 7B)): ~48.3%
